System: 233499-124-R-J3-PDC spheroids with HUVEC/MSC, viability
Assay: Anticancer human tumor 233499-124-R-J3-PDC patient-derived colon adenocarcinoma cell line growth inhibition [PI3K]
Conditions: for IC50: curve of first compound; for viability, T/C: stronger effect = lower value; active means viability on the fitted dose curve at most 10% of control; inactive means the rest
Outline: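 Complex 3D spheroids (cancer cells + endothelial HUVEC + mesenchymal stem cells); drug pairs of targeted agent x inavolisib/alpelisib/duvelisib/copanlisib; half-log series from ~Cmax, max 10 microM if Cmax unknown; endpoint viability.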

[1] = second compound 0.0316 µM, first compound 0.0316 µM
[2] = second compound 0.0316 µM, first compound 0.1 µM
[3] = second compound 0.0316 µM, first compound 0.316 µM
[4] = second compound 0.0316 µM, first compound 1 µM
[5] = second compound 0.0316 µM, first compound 3.16 µM
[6] = second compound 0.0316 µM, first compound 10 µM
[7] = second compound 0.1 µM, first compound 0.0316 µM
[8] = second compound 0.1 µM, first compound 0.1 µM
[9] = second compound 0.1 µM, first compound 0.316 µM
[10] = second compound 0.1 µM, first compound 1 µM
[11] = second compound 0.1 µM, first compound 3.16 µM
[12] = second compound 0.1 µM, first compound 10 µM
[13] = second compound 0.316 µM, first compound 0.0316 µM
[14] = second compound 0.316 µM, first compound 0.1 µM
[15] = second compound 0.316 µM, first compound 0.316 µM
[16] = second compound 0.316 µM, first compound 1 µM
[17] = second compound 0.316 µM, first compound 3.16 µM
[18] = second compound 0.316 µM, first compound 10 µM
[19] = second compound 1 µM, first compound 0.0316 µM
[20] = second compound 1 µM, first compound 0.1 µM
[21] = second compound 1 µM, first compound 0.316 µM
[22] = second compound 1 µM, first compound 1 µM
[23] = second compound 1 µM, first compound 3.16 µM
[24] = second compound 1 µM, first compound 10 µM
[25] = second compound 3.16 µM, first compound 0.0316 µM
[26] = second compound 3.16 µM, first compound 0.1 µM
[27] = second compound 3.16 µM, first compound 0.316 µM
[28] = second compound 3.16 µM, first compound 1 µM
[29] = second compound 3.16 µM, first compound 3.16 µM
[30] = second compound 3.16 µM, first compound 10 µM
[31] = second compound 10 µM, first compound 0.0316 µM
[32] = second compound 10 µM, first compound 0.1 µM
[33] = second compound 10 µM, first compound 0.316 µM
[34] = second compound 10 µM, first compound 1 µM
[35] = second compound 10 µM, first compound 3.16 µM
[36] = second compound 10 µM, first compound 10 µM
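Further: spheroids exposed to agents for seven days before readout.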
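Wherever viability, T/C is given: percent viability relative to DMSO vehicle control taken as 100%.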

CC(C)NCC(C(=O)N1CCN(c2ncnc3c2C(C)CC3O)CC1)c1ccc(Cl)cc1 (stereo unspecified) + Cc1nc(NC(=O)N2CCCC2C(N)=O)sc1-c1ccnc(C(C)(C)C(F)(F)F)c1
1190 nM: IC50 (second compound 3.16 µM)
< 31.6 nM: IC50 (second compound 10 µM)
> 10000 nM: IC50 (second compound 0.0316 µM) | IC50 (second compound 0.1 µM) | IC50 (second compound 0.316 µM) | IC50 (second compound 1 µM)
inactive: viability, T/C [1] 95.8% | viability, T/C [2] 104% | viability, T/C [3] 94.6% | viability, T/C [4] 86.5% | viability, T/C [5] 94.3% | viability, T/C [6] 56.5% | viability, T/C [7] 91.3% | viability, T/C [8] 94.7% | viability, T/C [9] 96.4% | viability, T/C [10] 83.2% | viability, T/C [11] 91.6% | viability, T/C [12] 51.4% | viability, T/C [13] 87.3% | viability, T/C [14] 82.3% | viability, T/C [15] 80.7% | viability, T/C [16] 76.6% | viability, T/C [17] 74.1% | viability, T/C [18] 72.8% | viability, T/C [19] 84.5% | viability, T/C [20] 75% | viability, T/C [21] 60.7% | viability, T/C [22] 71.7% | viability, T/C [23] 73.4% | viability, T/C [24] 62.1% | viability, T/C [25] 63.1% | viability, T/C [26] 29.6% | viability, T/C [27] 69.9% | viability, T/C [28] 59% | viability, T/C [29] 33.6% | viability, T/C [30] 43% | viability, T/C [31] 22.1% | viability, T/C [32] 19.2% | viability, T/C [33] 28.3% | viability, T/C [34] 22.6% | viability, T/C [35] 31.3% | viability, T/C [36] 23.9%

CCN1CCN(Cc2ccc(Nc3ncc(F)c(-c4cc(F)c5nc(C)n(C(C)C)c5c4)n3)nc2)CC1 + Cc1nc(NC(=O)N2CCCC2C(N)=O)sc1-c1ccnc(C(C)(C)C(F)(F)F)c1
inactive: viability, T/C (second compound 0.0316 µM, first compound 0.00316 µM) 67.3% | viability, T/C (second compound 0.0316 µM, first compound 0.01 µM) 90.7% | viability, T/C [1] 74% | viability, T/C [2] 79.7% | viability, T/C [3] 59.5% | viability, T/C [4] 39.6% | viability, T/C (second compound 0.1 µM, first compound 0.00316 µM) 72.5% | viability, T/C (second compound 0.1 µM, first compound 0.01 µM) 86.7% | viability, T/C [7] 67.5% | viability, T/C [8] 52.6% | viability, T/C [9] 66.6% | viability, T/C [10] 43.4% | viability, T/C (second compound 0.316 µM, first compound 0.00316 µM) 94.8% | viability, T/C (second compound 0.316 µM, first compound 0.01 µM) 79.2% | viability, T/C [13] 71.9% | viability, T/C [14] 47.6% | viability, T/C [15] 49.5% | viability, T/C [16] 30.7% | viability, T/C (second compound 1 µM, first compound 0.00316 µM) 52.5% | viability, T/C (second compound 1 µM, first compound 0.01 µM) 49.5% | viability, T/C [19] 49.7% | viability, T/C [20] 49.2% | viability, T/C [21] 38.4% | viability, T/C [22] 21.3% | viability, T/C (second compound 3.16 µM, first compound 0.00316 µM) 55.4% | viability, T/C (second compound 3.16 µM, first compound 0.01 µM) 49.1% | viability, T/C [25] 37.7% | viability, T/C [26] 36.6% | viability, T/C [27] 25% | viability, T/C [28] 24.4% | viability, T/C (second compound 10 µM, first compound 0.00316 µM) 28.1% | viability, T/C (second compound 10 µM, first compound 0.01 µM) 21.9% | viability, T/C [31] 27.6% | viability, T/C [32] 21.1% | viability, T/C [33] 21.3% | viability, T/C [34] 20.7%
658 nM: IC50 (second compound 0.1 µM)
< 3.16 nM: IC50 (second compound 10 µM)
164 nM: IC50 (second compound 0.316 µM)
36 nM: IC50 (second compound 1 µM)
7.26 nM: IC50 (second compound 3.16 µM)
547 nM: IC50 (second compound 0.0316 µM)

Cn1ncc(Cl)c1-c1cc(C(=O)NC(CN)Cc2cccc(F)c2)sc1Cl (stereo unspecified) + Cc1nc(NC(=O)N2CCCC2C(N)=O)sc1-c1ccnc(C(C)(C)C(F)(F)F)c1
4030 nM: IC50 (second compound 0.316 µM)
3310 nM: IC50 (second compound 0.1 µM)
5530 nM: IC50 (second compound 0.0316 µM)
2630 nM: IC50 (second compound 1 µM)
558 nM: IC50 (second compound 3.16 µM)
< 31.6 nM: IC50 (second compound 10 µM)
inactive: viability, T/C [1] 110% | viability, T/C [2] 90.8% | viability, T/C [3] 87.1% | viability, T/C [4] 77.2% | viability, T/C [5] 70% | viability, T/C [6] 34.1% | viability, T/C [7] 102% | viability, T/C [8] 86.6% | viability, T/C [9] 82.8% | viability, T/C [10] 57.2% | viability, T/C [11] 53.5% | viability, T/C [12] 39.3% | viability, T/C [13] 85.3% | viability, T/C [14] 94% | viability, T/C [15] 76.2% | viability, T/C [16] 64.4% | viability, T/C [17] 62.1% | viability, T/C [18] 27.7% | viability, T/C [19] 81.9% | viability, T/C [20] 74.3% | viability, T/C [21] 72.7% | viability, T/C [22] 75.2% | viability, T/C [23] 45.3% | viability, T/C [24] 18.7% | viability, T/C [25] 62% | viability, T/C [26] 69.9% | viability, T/C [27] 55.3% | viability, T/C [28] 38.1% | viability, T/C [29] 35.3% | viability, T/C [30] 14.4% | viability, T/C [31] 29.3% | viability, T/C [32] 29.4% | viability, T/C [33] 23% | viability, T/C [34] 25.5% | viability, T/C [35] 30% | viability, T/C [36] 2.94%

Reference: PubChem BioAssay AID1963984 (Molecular Pharmacology Branch, DTP, NCI, 2024)
